Assay results taken from BindingDB's records for doi:10.1016/0960-894X(95)00340-Y (1995).
Counter-ions that a name gives are not always drawn.

Biological target: Leukotriene B4 receptor 1 (Cavia porcellus)
Test: Binding affinity against Guinea pig membrane LTB4 Receptor.

SMILES	Ki [nM]
CCCc1cc(CC)c(OCCCCCC(C)(C)c2nn[nH]n2)cc1O [Sodium salt of 4-Ethyl-5-[6-methyl-6-(2H-tetrazol-5-yl)-heptyloxy]-2-propyl-phenol]	14
CCc1cc(CC)c(OCCCCCC(C)(C)c2nn[nH]n2)cc1O [sodium 2,4-diethyl-5-[6-methyl-6-(2H-1,2,3,4-tetraazol-5-yl)heptyloxy]phenol]	17
CCCCCCc1cc(CC)c(OCCCCCC(C)(C)c2nn[nH]n2)cc1O [sodium 4-ethyl-2-hexyl-5-[6-methyl-6-(2H-1,2,3,4-tetraazol-5-yl)heptyloxy]phenol]	33
